According to PubChem BioAssay (NCI):
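Dose response: 5 concentrations. Exposure: 48 h. Format: 96-well plates. Endpoint: linear interpolation; highest concentration if not reached. At the GI50, growth is halved. TGI: concentration producing complete growth inhibition.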 Where a SMILES comes first, the peptide text is derived from it. [ ]: non-standard residue; d: D form. The star is where a group is joined. ξ: configuration not given here. X6 = FC(F)(F)c1cc(NC(=S)*)cc(C(F)(F)F)c1; ξF = NC(Cc1ccccc1)C(=O)O

What was measured:
Assay in all cases: NCI anticancer screen, dose series, 48 h
[1] = tested on: ACHN renal
[2] = tested on: CCRF-CEM leukemia
[3] = tested on: HCT-116 colon
[4] = tested on: HL-60(TB) leukemia
[5] = tested on: HT29 colon
[6] = tested on: NCI-H460 lung
[7] = tested on: RPMI-8226 leukemia
[8] = tested on: RXF 393 renal
[9] = tested on: SF-295 CNS
[10] = tested on: SF-539 CNS

Compound	TGI [1] [µM]	TGI [2] [µM]	TGI [3] [µM]	TGI [4] [µM]	TGI [5] [µM]	TGI [6] [µM]	TGI [7] [µM]	TGI [8] [µM]	TGI [9] [µM]	TGI [10] [µM]	GI50 [2] [µM]	GI50 [3] [µM]	GI50 [4] [µM]	GI50 [6] [µM]	GI50 [7] [µM]	GI50 [8] [µM]	GI50 [9] [µM]	GI50 [10] [µM]	GI50 [1] [µM]	GI50 [5] [µM]
CC(C)C/C(CC(=O)CCC(=O)Nc1ccccc1[N+](=O)[O-])=N\NC(=O)c1cc2ccccc2cc1O	> 100	59.6	> 100	88.7	> 100	> 100	> 100	> 100	99.8	82.3	–	–	–	–	–	–	–	–	–	–
COc1cc2c(cc1OC)-c1c3cc(O)ccc3nn[n+]1CC2	–	> 100	> 100	> 100	> 100	> 100	> 100	> 100	> 100	> 100	–	–	–	–	–	–	–	–	–	–
Cc1cc(C)nc(NS(=O)(=O)c2ccc(NC(=O)c3ccc(Cl)c4c(Nc5ccc(S(=O)(=O)Nc6nc(C)cc(C)n6)cc5)c5ccccc5nc34)cc2)n1	> 100	> 100	–	11	> 100	> 100	> 100	4.83	> 100	–	–	–	–	–	–	–	–	–	–	–
Nc1ccccc1SC(C[N+](=O)[O-])c1ccc2c(c1)OCO2 (configuration not stated)	19	–	3.71	4.6	3.81	4.75	4.42	3.33	18.8	4.98	–	–	–	–	–	–	–	–	–	–
CCCCCCCCCCCCCCCCCC(CCCCCCCCCCCCCCCCC)OP(=O)(O)O	> 100	> 100	> 100	> 100	> 100	> 100	> 100	> 100	> 100	–	–	–	–	–	–	–	–	–	–	–
O=C(/C=C/c1ccccc1)NC1C=Nc2ccc(Cl)cc2NC1=O (configuration not stated)	> 100	33.5	85.7	30.3	> 100	51	–	52.4	> 100	88.2	–	–	–	–	–	–	–	–	–	–
Cc1ccc(NC2=C(Cl)C(=O)N(Cc3ccccc3)C2=O)cc1O	–	> 100	> 100	> 100	–	> 100	47.5	> 100	81.8	76	29.6	37.7	6.45	34	9.26	52	22	25	–	–
O=C(O)CSc1ccc([N+](=O)[O-])cc1[N+](=O)[O-]	> 100	–	> 100	> 100	> 100	> 100	> 100	> 100	> 100	–	–	–	–	–	–	–	–	–	–	–
CCCCCN(CCCCC)CC(O)c1cc(C)c2ccc3cc(C(C)C)ccc3c2c1 (configuration not stated)	3.05	5.53	3.32	4.02	–	4.05	4.81	3.1	3.46	3.36	2.19	1.73	2.04	1.97	2.11	1.57	1.87	1.79	1.6	–
COc1ccc2c3c1C(=O)CCCC3CO2 (configuration not stated)	> 100	> 100	–	> 100	> 100	> 100	> 100	> 100	> 100	> 100	–	–	–	–	–	–	–	–	–	–
NNC(=O)Nc1cccnc1	> 100	> 100	> 100	> 100	> 100	–	> 100	> 100	> 100	> 100	–	–	–	–	–	–	–	–	–	–
CC1(c2ccc(F)cc2)C(C#N)C(=O)NC(=O)C1C#N (configuration not stated)	> 100	> 100	–	> 100	> 100	> 100	> 100	> 100	> 100	> 100	–	–	–	–	–	–	–	–	–	–
COc1ccc(C(=O)Cn2c(C(=O)c3ccccc3)nc(-c3ccc(OC)cc3)c2-c2ccc(OC)cc2)cc1	> 100	–	> 100	> 100	> 100	> 100	> 100	49.2	> 100	> 100	–	> 100	> 100	> 100	> 100	19.9	42.5	31.5	> 100	> 100
COC1(OC)CCC2C1C1CCC(OC)(OC)C21 (configuration not stated)	> 50	> 50	> 50	> 50	> 50	–	> 50	> 50	> 50	> 50	–	–	–	–	–	–	–	–	–	–
Cc1cc(I)cc(CN(C)CCCCN2CCCCC2)c1O	76.7	–	21.1	26.3	14.2	26.7	25.5	32.6	7.62	25.1	–	8.78	10.9	13.2	8.68	12.9	3.05	12	27.3	3.21
Cc1ccc(N=Nc2ccc(N(CCC#N)CCC#N)cc2C)c(Br)c1	> 100	> 100	–	65.7	27.4	–	35.8	46.1	93.1	> 100	–	–	–	–	–	–	–	–	–	–
COC(=O)[C@@H](NC(=O)CNC(=O)[C@H]1CCCN1C(=O)C(Cc1ccccc1)NC(=S)Nc1cc(C(F)(F)F)cc(C(F)(F)F)c1)C(C)C (some centres not stated) (X6-[ξF][dP]GV-OMe)	10.7	35.1	10.7	12.7	5.75	12	–	3.5	6.12	3.94	3.17	3.34	3.58	3.39	–	1.95	2.33	2.06	3.36	2.44
O=C(COc1ccc(Br)cc1Br)N1N=C(c2ccc([N+](=O)[O-])o2)CC1(O)c1ccccc1 (configuration not stated)	> 100	14.8	33.2	17.1	48	20.4	8.96	15.7	53.7	–	–	–	–	–	–	–	–	–	–	–
CCCCOC(=O)C1OC(O[C@H]2CCC3(C)C(CCC4(C)C3CC=C3C5CC(C)(C)CCC5(C(=O)O)CC[C@]34C)C2(C)C)C(OC2OC(CO)C(O)C(O)C2O)C(OC2OC(CO)C(O)C(O)C2O)C1O (some centres not stated)	48.5	–	42.7	52	> 100	> 100	–	> 100	71	–	–	20.6	22.3	33.3	–	58.5	26	–	20.6	34.2
O=S1(=O)c2ccccc2NC(c2ccc3ccccc3c2)CC1c1ccccc1F (configuration not stated)	> 100	> 100	–	> 100	> 100	> 100	> 100	> 100	> 100	> 100	–	–	–	–	–	–	–	–	–	–
O=C(Nc1ccccc1OC(F)(F)F)Nc1n[nH]c2ccccc12	> 100	–	> 100	> 100	> 100	> 100	53.1	> 100	> 100	> 100	–	16.2	17.9	15	5.2	24.4	39	30.5	31.1	26.1
O=S(=O)(NC1=NCCN1C(=S)SN1CCn2c1nsc2=S)c1ccc(OC(F)(F)F)cc1	23	> 100	22.3	7.35	> 100	48.5	> 100	8.1	–	12.1	4.01	6.15	2.88	13.1	6.1	2.77	–	1.31	10.1	11.4
CC1=C(C(=O)Nc2ccc(Cl)c(Cl)c2)C(c2cccc(Oc3ccccc3)c2)NC(=S)N1 (configuration not stated)	15.1	–	> 50	> 50	–	14.4	> 50	22.1	15.3	13	–	20.6	15.9	7.57	11.2	7.33	8.15	6.6	8.07	–
COC(=O)CC1CCN(C#N)CC1CC[N+](=O)[O-] (configuration not stated)	> 100	> 100	> 100	> 100	–	> 100	> 100	> 100	–	> 100	–	–	–	–	–	–	–	–	–	–
C#Cc1ccc(-n2c(/C=C/c3ccc(C(F)(F)F)cc3)nc3ncccc3c2=O)cc1	3.26	> 100	3.02	6.07	3.95	4.13	6.28	3.79	–	3.17	1.95	1.63	2.07	1.98	1.39	1.79	–	1.68	1.71	2.03
CCOC(=O)CN1C(=O)c2cccc3cc([N+](=O)[O-])cc(c23)C1=O	21.7	1.5	3	2.32	25.4	17.3	–	3.89	–	16	–	–	–	–	–	–	–	–	–	–
